The values below come from US11839613B2, “Pyrimidine derivatives as PGE2 receptor modulators” (IDORSIA PHARMACEUTICALS LTD, priority 2017, dated 2023).

One test deals with PTGER2 (EP2) (Homo sapiens (Human), UniProt P43116). Description: hEP2 b-arrestin assay (PathHunter HEK 293 PTGER2 b-arrestin cells). The format is cell-based. Particulars: antagonistic activity, beta-arrestin assay; read-out: hEP2 b-arr IC50. How it is done: Plate is pre-incubated 15 minutes at 37° C. Then five microliters of PGE2 (final conc. 5 μM) are transferred into the assay plate. Plate is incubated 120 minutes at 37° C.
(each concentration is measured in duplicate)

For the next test, the target named is PTGER4 (EP4) (Homo sapiens (Human), UniProt P35408). Kind of test: cell-based.
A further test has as its target EP2 (Homo sapiens (Human), UniProt P43116). Kind of test: hEP2 cAMP assay (SF295 glioblastoma cells, HTRF cAMP). It is filed as cell-based. Particulars: antagonistic activity. The method, boiled down:
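PGE2-driven cAMP accumulation was measured by HTRF in SF295 cells, which express endogenous EP2 only. Cells in assay buffer with 2 mM IBMX were pre-incubated 45 min at RT, then incubated 30 min at RT. Detection used competition between cellular cAMP and d2-cAMP for a cryptate anti-cAMP antibody.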

The target in the next test is EP4 (Homo sapiens (Human), UniProt P35408). Description: hEP4 cAMP assay (BT549 breast cancer cells, HTRF cAMP). The format is cell-based. The settings on record: antagonistic activity, PGE2 6 nM. In a few lines: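 cAMP accumulation quantified by HTRF competition between cellular cAMP and d2-labeled cAMP for cryptate anti-cAMP antibody. Cells: endogenously EP4-expressing BT549, buffer with 2 mM IBMX; 45 min RT compound preincubation preceded 30 min RT challenge with PGE2 at 6 nM final.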
EP4, sequence (P35408 whole entry): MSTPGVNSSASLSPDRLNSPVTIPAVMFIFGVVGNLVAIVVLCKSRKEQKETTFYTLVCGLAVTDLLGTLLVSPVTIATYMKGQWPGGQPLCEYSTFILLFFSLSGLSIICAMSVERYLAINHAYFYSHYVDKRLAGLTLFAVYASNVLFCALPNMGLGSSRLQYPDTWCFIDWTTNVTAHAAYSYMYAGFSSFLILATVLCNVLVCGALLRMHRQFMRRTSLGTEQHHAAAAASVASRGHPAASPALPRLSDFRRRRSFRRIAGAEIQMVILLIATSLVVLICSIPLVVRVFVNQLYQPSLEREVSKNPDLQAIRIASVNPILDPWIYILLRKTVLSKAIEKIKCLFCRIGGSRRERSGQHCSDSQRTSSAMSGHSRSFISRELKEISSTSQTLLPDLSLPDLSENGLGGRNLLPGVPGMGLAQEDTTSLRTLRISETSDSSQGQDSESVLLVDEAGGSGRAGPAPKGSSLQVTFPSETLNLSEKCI

PTGER4 (EP4), sequence (P35408 whole entry): as above
EP2, sequence (P43116 whole entry): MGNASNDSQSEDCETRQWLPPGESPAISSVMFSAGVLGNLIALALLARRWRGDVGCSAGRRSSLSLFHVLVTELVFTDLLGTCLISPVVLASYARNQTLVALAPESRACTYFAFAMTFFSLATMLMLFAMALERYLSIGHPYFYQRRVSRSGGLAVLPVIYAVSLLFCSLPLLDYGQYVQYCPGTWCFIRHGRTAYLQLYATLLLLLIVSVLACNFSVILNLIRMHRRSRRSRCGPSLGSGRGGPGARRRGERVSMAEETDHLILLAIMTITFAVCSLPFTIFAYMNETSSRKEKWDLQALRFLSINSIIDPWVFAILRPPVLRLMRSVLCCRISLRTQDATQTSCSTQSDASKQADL
PTGER2 (EP2), sequence (P43116 whole entry): as above

For the compound `O=C(O)c1ccc(-c2cc(NCCc3ccc4sccc4c3)ncn2)cc1OC1CCC1` [Ex 125, 4-[6-(2-Benzo[b]thiophen-5-yl-ethylamino)-pyrimidin-4-yl]-2-cyclobutoxy-benzoic acid], the IC50 is 116 nM on PTGER2 (EP2), 226 nM against PTGER4 (EP4), 129 nM against EP2 and 99 nM on EP4.

As to `CCOc1cc(-c2cc(NCCc3ccc4c(c3)CCCO4)ncn2)sc1C(=O)O` [Ex 56, 5-[6-(2-Chroman-6-yl-ethylamino)-pyrimidin-4-yl]-3-ethoxy-thiophene-2-carboxylic acid], the IC50 on PTGER2 (EP2) was found to be 538 nM; on PTGER4 (EP4), 27 nM; against EP2 it was 190 nM; at EP4, 28 nM.

In the case of `CCOc1cc(-c2cc(NCCc3c(OC)cc4occc4c3C)ncn2)ccc1OCC(=O)O` [Ex 102, (2-Ethoxy-4-{6-[2-(6-methoxy-4-methyl-benzofuran-5-yl)-ethylamino]-pyrimidin-4-yl}-phenoxy)-acetic acid], the IC50 was determined as 9 nM at PTGER2 (EP2), 141 nM against PTGER4 (EP4), 6 nM against EP2 and 70 nM against EP4.

In the case of `CCc1cc(-c2cc(NCCc3cc(F)c4sccc4c3)ncn2)sc1C(=O)O` [Example 455, 3-Ethyl-5-{6-[2-(7-fluoro-benzo[b]thiophen-5-yl)-ethylamino]-pyrimidin-4-yl}-thiophene-2-carboxylic acid], the IC50 at PTGER2 (EP2) came out at 271 nM; against PTGER4 (EP4), 18 nM; against EP2 it was 250 nM; at EP4 (BT549 cells) it was 38 nM.

Regarding `CCOc1cc(-c2cc(NCCc3ccc4[nH]ccc4c3)ncn2)sc1-c1noc(=O)[nH]1` [Example 339, 3-(3-Ethoxy-5-{6-[2-(1H-indol-5-yl)-ethylamino]-pyrimidin-4-yl}-thiophen-2-yl)-[1,2,4]oxadiazol-5(4H)-one], the concentration for half-maximal inhibition (IC50) on PTGER2 (EP2) is 66 nM; against PTGER4 (EP4), 10 nM; on EP2 it was 90 nM; on EP4, 22 nM.

For the compound `COc1cc2sccc2cc1CCNc1cc(-c2ccc(C(=O)O)cc2)ncn1` [Ex 276, 4-{6-[2-(6-Methoxy-benzo[b]thiophen-5-yl)-ethylamino]-pyrimidin-4-yl}-benzoic acid], the IC50 came out at 79 nM at PTGER2 (EP2), 1820 nM against PTGER4 (EP4), 47 nM at EP2 and 474 nM against EP4.

With `CCOc1nc(-c2cc(NCCc3ccc4ccccc4c3C)ncn2)sc1-c1noc(=O)[nH]1` [Example 352, 3-(4-Ethoxy-2-{6-[2-(1-methyl-naphthalen-2-yl)-ethylamino]-pyrimidin-4-yl}-thiazol-5-yl)-[1,2,4]oxadiazol-5(4H)-one], the half-inhibitory concentration (IC50) on PTGER2 (EP2) is 42 nM; against PTGER4 (EP4) it was 5 nM; against EP2, 142 nM; at EP4 it was 24 nM.

With `COc1cc2occc2cc1CCNc1cc(-c2ccc(C(=O)O)c(OC3CCC3)c2)ncn1` [Ex 100, 2-Cyclobutoxy-4-{6-[2-(6-methoxy-benzofuran-5-yl)-ethylamino]-pyrimidin-4-yl}-benzoic acid], the IC50 at PTGER2 (EP2) was found to be 35 nM; at PTGER4 (EP4) it was 176 nM; at EP2, 29 nM; at EP4, 67 nM.

Regarding `CCOc1cc(-c2cc(NCCc3ccc4[nH]ccc4c3)ncn2)sc1C(=O)O` [Ex 32, 3-Ethoxy-5-{6-[2-(1H-indol-5-yl)-ethylamino]-pyrimidin-4-yl}-thiophene-2-carboxylic acid], the IC50 stood at 199 nM on PTGER2 (EP2), 56 nM on PTGER4 (EP4), 161 nM on EP2 and 18 nM on EP4.

As to `CCOc1cc(-c2cc(NCCc3c(OCC)cc4ccccc4c3F)ncn2)ccc1C(=O)O` [Example 436, 2-Ethoxy-4-{6-[2-(3-ethoxy-1-fluoro-naphthalen-2-yl)-ethylamino]-pyrimidin-4-yl}-benzoic acid], the IC50 on PTGER2 (EP2) was 16 nM; against PTGER4 (EP4), 31 nM; on EP2 it was 110 nM; against EP4 (BT549 cells), 57 nM.

`Cc1c(CCNc2cc(-c3ccc(C(=O)O)c(CC(C)C)c3)ncn2)ccc2ccccc12` [Ex 76, 2-Isobutyl-4-{6-[2-(1-methyl-naphthalen-2-yl)-ethylamino]-pyrimidin-4-yl}-benzoic acid]: the half-maximal inhibitory concentration (IC50) at PTGER2 (EP2) amounted to 360 nM; on PTGER4 (EP4) it was 120 nM; against EP2, 221 nM; at EP4 it was 42 nM.

For `O=C(O)c1ccc(-c2cc(NCCc3ccc4c(c3)CCCO4)ncn2)cc1OC1CCC1` [Ex 266, 4-[6-(2-Chroman-6-yl-ethylamino)-pyrimidin-4-yl]-2-cyclobutoxy-benzoic acid], the concentration for half-maximal inhibition (IC50) against PTGER4 (EP4) turned out to be 444 nM; against EP2, 537 nM; against EP4, 428 nM.

In the case of `CCOc1cc(-c2cc(NCCc3ccc4c(c3)CCC4)ncn2)sc1C(=O)O` [Ex 44, 3-Ethoxy-5-[6-(2-indan-5-yl-ethylamino)-pyrimidin-4-yl]-thiophene-2-carboxylic acid], the 50% inhibitory concentration (IC50) against PTGER4 (EP4) is 24 nM; at EP2, 283 nM; at EP4, 21 nM.

`O=C(O)c1ccc(-c2cc(NCCc3ccc4c(c3)CCC4)ncn2)cc1OC1CCC1` [Ex 206, 2-Cyclobutoxy-4-[6-(2-indan-5-yl-ethylamino)-pyrimidin-4-yl]-benzoic acid]: the concentration for half-maximal inhibition (IC50) at PTGER4 (EP4) is 304 nM; against EP2, 572 nM; on EP4, 248 nM.

`CCOc1cc(-c2cc(NCCc3cc4c(cc3OC)OCCO4)ncn2)ccc1CC(=O)O` [Ex 175]: the concentration for half-maximal inhibition (IC50) amounted to 179 nM at PTGER4 (EP4), 301 nM against EP2 and 185 nM against EP4.

As for `CN1CCCc2cc(CCNc3cc(-c4cc(C(F)(F)F)c(C(=O)O)s4)ncn3)c(F)cc21` [Ex 72, 5-{6-[2-(7-Fluoro-1-methyl-1,2,3,4-tetrahydro-quinolin-6-yl)-ethylamino]-pyrimidin-4-yl}-3-trifluoromethyl-thiophene-2-carboxylic acid], the IC50 on PTGER4 (EP4) is 37 nM; on EP2, 892 nM; against EP4, 39 nM.

Regarding `CCOc1cc(-c2cc(NCCc3cc4ccccc4cc3OC)ncn2)ccc1OCC(=O)O` [Ex 122, (2-Ethoxy-4-{6-[2-(3-methoxy-naphthalen-2-yl)-ethylamino]-pyrimidin-4-yl}-phenoxy)-acetic acid], the concentration for half-maximal inhibition (IC50) against PTGER4 (EP4) turned out to be 19 nM; against EP2, 324 nM; against EP4, 95 nM.

On to `CCOc1cc(-c2cc(NCCc3ccc4occc4c3)ncn2)ccc1CC(=O)O` [Ex 311, {4-[6-(2-Benzofuran-5-yl-ethylamino)-pyrimidin-4-yl]-2-ethoxy-phenyl}-acetic acid], for which the 50% inhibitory concentration (IC50) against PTGER4 (EP4) was found to be 310 nM; at EP2 it was 538 nM; against EP4, 685 nM.

Consider `CSc1cc(-c2cc(NCCc3ccc4[nH]ccc4c3)ncn2)ccc1C(=O)O` [Ex 319], for which the figures for the IC50 against PTGER4 (EP4), on EP2 and at EP4 were 1180 nM, 354 nM and 559 nM, respectively.

As to `Cc1csc2ccc(CCNc3cc(-c4ccc(C(=O)O)c(OC5CCC5)c4)ncn3)cc12` [Ex 306], the 50% inhibitory concentration (IC50) at PTGER4 (EP4) is 610 nM; at EP2, 274 nM; at EP4, 654 nM.

Consider `CSc1cc(-c2cc(NCCc3cc(C)c4c(c3)OCCO4)ncn2)ccc1C(=O)O` [Ex 292], for which the results for the 50% inhibitory concentration (IC50) against PTGER4 (EP4), on EP2 and on EP4 were 1510 nM, 688 nM and 538 nM, respectively.
